Here are results for two compounds from patent US9850251B2, “Imidazole derivative used as antiviral agent and use therof in preparation of medicament” (priority 2013, dated 2017).

Data set [1] relates to RSV respiratory tract virus (A long strain). The data set is described as follows: RSV long CPE assay (cytopathic effect assay), EC50. In kind it is cell-based. Conditions: human respiratory syncytial virus, HEp-2, 120 h; Hep2 cells infected with RSV A long strain, 5 days, CCK-8 readout. The procedure:
(§1) Detect EC50 and CC50 values of anti RSV respiratory tract virus compounds through the cytopathic effect assay.
Virus strain: RSV respiratory tract virus (A long strain)
(§2) The cell plate was centrifugated (300 rpm) to make the cells adherent to the wall, placed into a 37° C., 5% CO2 incubator overnight.
(§3) 1) the compound in 100% DMSO underwent a semi logarithmic dilution, then was added to the cell plate with a Echo liquid handler. Ensure that the final concentration of DMSO was 1%;
(§4) 2) Cell-control hole: no compound and viruse were added; virus-control hole: no compound was added.
dilute RSV viruses to 100 TCID50/30 μL with medium cultured with 4° C. cells, and then add the diluted viruses to a cell plate (30 μL/hole) with Multidrop® automatic liquid distributor, and then placed into a 37° C., 5% CO2 culture incubator for 5 days.
1) after 5 days, observe the pathological change in each hole.
(§5) 2) add CCK-8 (Dojindo-CK04-20, 6 μL/hole) to 384 well plate with Multidrop® automatic liquid distributor;
(§6) 3) place the plate at a 37° C., 5% CO2 culture incubator for 3˜4 h, read the absorbance value with SPECTRA max 340PC_Molecular device at 450 nm and 630 nm;

Data set [2] in a line: RSV long CPE assay (cytopathic effect assay), CC50 toxicity in vitro. In kind it is cell-based. As to conditions: human, Hep2 cells, CCK-8 readout, top concentration 100 μM. The procedure: as §1, §2, §3, §4, §5, §6

In data set [1], `CC(C)OC(=O)N1CC2(C1)C(=O)N(Cc1nc3c(n1CCCC(F)(F)F)CCCC3)c1ccccc12` [Embodiment 65, Isopropyl 2′-oxo-1′-((1-(4,4,4-trifluorobutyl)-4,5,6,7-tetrahydro-1H-benzo[d]imidazol-2-yl)methyl)spiro[azetidine-3,3′-indoline]-1-carboxylate] had a half-maximal effective concentration (EC50) of less than 100 nM. The CC50 at 5 days in data set [2] is greater than 100 µM.

With `O=C1N(Cc2nc3c(n2CCCC(F)(F)F)CCCC3)c2ccccc2C12CN(S(=O)(=O)C1CC1)C2` [Embodiment 98, 1-(Cyclopropylsulfonyl)-1′-((1-(4,4,4-trifluorobutyl)-4,5,6,7-tetrahydro-1H-benzo[d]imidazol-2-yl)methyl)spiro[azetidine-3,3′-indoline]-2′-one], in data set [1], the EC50 is less than 100 nM. In data set [2], this compound came in with a CC50 at 5 days greater than 100 µM.
